Measurements from ChEMBL document CHEMBL3872247, “Discovery of dual positive allosteric modulators (PAMs) of the metabotropic glutamate 2 receptor and CysLT1 antagonists for treating migraine headache” (Bioorg Med Chem Lett, 2017).

How the values were obtained:
[1] = Cmax in rat at 1 mg/kg, po; type: ADME, organism-based; parameters: dose 1 mg/kg, route oral; conditions: in vivo
[2] = target: Histamine H1 receptor (Homo sapiens) (UniProt P35367); assay: Displacement of [3H]pyrilamine from recombinant human histamine H1 receptor expressed in HEK293 cells at 10 uM measured after 60 mins by scintillation counting method; type: cell-based
[3] = target: 5-hydroxytryptamine receptor 1A (Homo sapiens, UniProt P08908); assay: Activity at human 5HT1A receptor
[4] = target: T1, Cysteinyl leukotriene receptor 1 (Homo sapiens, UniProt Q9Y271); assay: Antagonist activity at human CysLT1 receptor expressed in Syrian hamster AV12-664 cells assessed as decrease in LTD4-induced intracellular calcium level pretreated followed by LTD4 addition by fluo-3 dye based FLIPR assay; type: functional, cell-based
T1 sequence (Q9Y271 whole entry): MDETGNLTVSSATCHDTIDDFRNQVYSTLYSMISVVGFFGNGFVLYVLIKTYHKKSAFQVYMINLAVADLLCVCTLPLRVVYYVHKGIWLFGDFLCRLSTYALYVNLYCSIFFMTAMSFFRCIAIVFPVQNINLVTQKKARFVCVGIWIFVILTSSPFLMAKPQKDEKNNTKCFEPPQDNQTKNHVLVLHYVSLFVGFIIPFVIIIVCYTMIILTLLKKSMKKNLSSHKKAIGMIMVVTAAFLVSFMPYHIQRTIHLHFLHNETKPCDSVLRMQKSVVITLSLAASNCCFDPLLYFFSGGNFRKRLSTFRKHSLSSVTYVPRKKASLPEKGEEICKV

[5] = target: Metabotropic glutamate receptor 5 (Homo sapiens, UniProt P41594); assay: Positive allosteric modulation of recombinant human mGlu5 expressed in hamster AV12 cells expressing EAAT1 assessed as potentiation of glutamate-induced intracellular Ca2+ level measured after 24 hrs by FLIPR assay; type: functional, cell-based
[6] = Oral bioavailability in dog at 1 mg/kg; type: ADME, organism-based, Canis lupus familiaris; conditions: in vivo
[7] = target: Adrenergic receptor alpha-1 (Rattus norvegicus) (UniProt P15823+P23944+P43140); assay: Displacement of [3H]prazosin from non-selective alpha1 adrenergic receptor in rat brain cortex at 10 uM measured after 60 mins by scintillation counting method; type: tissue-based
[8] = target: 5-hydroxytryptamine receptor 1E (Homo sapiens, UniProt P28566); assay: Activity at human 5HT1E receptor
[9] = target: D(1A) dopamine receptor (Homo sapiens) (UniProt P21728); assay: Displacement of [3H]SCH23390 from recombinant human dopamine D1 receptor expressed in CHO cells at 10 uM measured after 60 mins by scintillation counting method; type: cell-based
[10] = Cmax in rat at 1 mg/kg, iv; type: ADME, organism-based; parameters: dose 1 mg/kg, route intravenous; conditions: in vivo
[11] = Half life in dog at 0.5 mg/kg, iv; type: ADME, organism-based, Canis lupus familiaris; conditions: in vivo
[12] = target: T2, Metabotropic glutamate receptor 1 (Homo sapiens, UniProt Q13255); assay: Antagonist activity at recombinant human mGlu1 receptor expressed in hamster AV12 cells expressing EAAT1 assessed as inhibition of glutamate-induced intracellular Ca2+ level measured after 24 hrs by FLIPR assay; type: functional, cell-based
Rattus norvegicus [13] = assay: Decrease in plasma protein extravasation in fasted Harlan Sprague-Dawley rat model of migraine compound administered via oral gavage 1 hr prior to electrical stimulation of trigeminal ganglion measured after 15 mins by FITC-BSA based fluorescence assay; type: functional
[14] = target: 5-hydroxytryptamine receptor 6 (Homo sapiens, UniProt P50406); assay: Displacement of [3H]LSD from human 5HT6 receptor expressed in CHO cells after 120 mins by scintillation counting method; type: cell-based
Rattus norvegicus [15] = species on record: Rattus norvegicus; assay: Displacement of [3H]GABA from non-selective GABA channel in rat cerebral cortex at 10 uM measured after 60 mins by scintillation counting method
hERG (KCNH2) = hERG (KCNH2) (Homo sapiens, UniProt Q12809); assay: Displacement of [3H]dofetilide from recombinant human ERG expressed in HEK293 cells measured after 60 mins by scintillation counting method; type: cell-based; conditions: HEK293 cells expressing recombinant human ERG, probe [3H]dofetilide
Rattus norvegicus [16] = species on record: Rattus norvegicus; assay: Displacement of [3H]flunitrazepam from Central-type benzodiazepine receptor in rat cerebral cortex at 10 uM measured after 60 mins by scintillation counting method
[17] = target: Adenosine receptor A1 (Homo sapiens) (UniProt P30542); assay: Displacement of [3H]DPCPX from human adenosine A1 receptor at 10 uM measured after 60 mins by scintillation counting method
Cytochrome P450 2C9 = Cytochrome P450 2C9 (Homo sapiens, UniProt P11712); assay: Inhibition of CYP2C9 (unknown origin); type: ADME
[18] = target: 5-hydroxytryptamine receptor 1F (Homo sapiens, UniProt P30939); assay: Activity at human 5HT1F receptor
[19] = Ratio of Cmax in rat to EC50 for human mGlu2 receptor expressed in hamster AV12 cells expressing EAAT1
[20] = target: 5-hydroxytryptamine receptor 4 (Homo sapiens, UniProt Q13639); assay: Displacement of human recombinant 5HT4E receptor expressed in CHO cells after 60 mins by scintillation counting method; type: cell-based
[21] = Half life in dog at 1 mg/kg, po; type: ADME, organism-based, Canis lupus familiaris; conditions: in vivo
[22] = target: Metabotropic glutamate receptor 8 (Homo sapiens) (UniProt O00222); assay: Agonist activity at recombinant human mGlu8 expressed in hamster AV12 cells expressing EAAT1 assessed as increase in intracellular Ca2+ level at 30 uM after 24 hrs by FLIPR assay; type: functional, cell-based
[23] = Volume of distribution in dog at 0.5 mg/kg, iv; type: ADME, organism-based, Canis lupus familiaris; conditions: in vivo
[24] = target: T3, Metabotropic glutamate receptor 3 (Homo sapiens, UniProt Q14832); assay: Agonist activity at recombinant human mGlu3 expressed in hamster AV12 cells expressing EAAT1 assessed as increase in intracellular calcium level measured after 24 hrs by FLIPR assay; type: functional, cell-based
[25] = target: 5-hydroxytryptamine receptor 1B (Homo sapiens, UniProt P28222); assay: Activity at human 5HT1B receptor
[26] = target: 5-hydroxytryptamine receptor 1D (Homo sapiens, UniProt P28221); assay: Activity at human 5HT1D receptor
[27] = Tmax in rat at 1 mg/kg, po; type: ADME, organism-based; conditions: in vivo
Cytochrome P450 2D6 = Cytochrome P450 2D6 (Homo sapiens, UniProt P10635); assay: Inhibition of CYP2D6 (unknown origin); type: ADME
[28] = target: T2, Metabotropic glutamate receptor 1; assay: Positive allosteric modulation of recombinant human mGlu1 expressed in hamster AV12 cells expressing EAAT1 assessed as potentiation of glutamate-induced intracellular Ca2+ level measured after 24 hrs by FLIPR assay; type: functional, cell-based
Cytochrome P450 3A4 = Cytochrome P450 3A4 (Homo sapiens, UniProt P08684); assay: Inhibition of CYP3A4 (unknown origin); type: ADME
[29] = target: Metabotropic glutamate receptor 4 (Homo sapiens) (UniProt Q14833); assay: Positive allosteric modulation of recombinant human mGlu4 receptor expressed in hamster AV12 cells expressing EAAT1 assessed as potentiation of glutamate-induced intracellular Ca2+ level at 20 uM after 24 hrs by FLIPR assay; type: functional, cell-based
[30] = target: T3, Metabotropic glutamate receptor 3; assay: Antagonist activity at recombinant human mGlu3 receptor expressed in hamster AV12 cells expressing EAAT1 assessed as inhibition of glutamate-induced intracellular Ca2+ level measured after 24 hrs by FLIPR assay; type: functional, cell-based
[31] = Half life in rat at 1 mg/kg, po; type: ADME, organism-based; conditions: in vivo

T3 sequence (Q14832 whole entry): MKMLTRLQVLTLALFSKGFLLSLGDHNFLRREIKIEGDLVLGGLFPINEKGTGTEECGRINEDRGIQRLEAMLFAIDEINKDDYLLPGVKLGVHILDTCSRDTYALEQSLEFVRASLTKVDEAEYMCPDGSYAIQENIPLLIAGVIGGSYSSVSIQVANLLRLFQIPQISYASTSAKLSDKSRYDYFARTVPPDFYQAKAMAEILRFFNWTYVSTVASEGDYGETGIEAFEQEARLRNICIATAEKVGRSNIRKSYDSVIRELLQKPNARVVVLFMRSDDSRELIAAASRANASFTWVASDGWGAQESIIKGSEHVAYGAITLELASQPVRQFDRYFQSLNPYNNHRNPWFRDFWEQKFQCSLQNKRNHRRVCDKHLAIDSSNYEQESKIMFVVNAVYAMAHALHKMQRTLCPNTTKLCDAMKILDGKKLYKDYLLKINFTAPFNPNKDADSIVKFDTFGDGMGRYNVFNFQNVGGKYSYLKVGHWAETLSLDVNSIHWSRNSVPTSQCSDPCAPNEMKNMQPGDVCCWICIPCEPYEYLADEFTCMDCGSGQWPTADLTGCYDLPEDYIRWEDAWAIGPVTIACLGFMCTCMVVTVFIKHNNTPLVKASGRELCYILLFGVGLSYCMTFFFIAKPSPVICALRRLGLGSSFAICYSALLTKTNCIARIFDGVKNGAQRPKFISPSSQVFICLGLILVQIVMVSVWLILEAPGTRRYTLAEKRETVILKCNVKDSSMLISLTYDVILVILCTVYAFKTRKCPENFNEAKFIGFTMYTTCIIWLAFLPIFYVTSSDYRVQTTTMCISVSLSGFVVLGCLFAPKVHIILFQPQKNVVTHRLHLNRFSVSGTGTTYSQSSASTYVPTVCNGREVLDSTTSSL
T2 sequence (Q13255 whole entry): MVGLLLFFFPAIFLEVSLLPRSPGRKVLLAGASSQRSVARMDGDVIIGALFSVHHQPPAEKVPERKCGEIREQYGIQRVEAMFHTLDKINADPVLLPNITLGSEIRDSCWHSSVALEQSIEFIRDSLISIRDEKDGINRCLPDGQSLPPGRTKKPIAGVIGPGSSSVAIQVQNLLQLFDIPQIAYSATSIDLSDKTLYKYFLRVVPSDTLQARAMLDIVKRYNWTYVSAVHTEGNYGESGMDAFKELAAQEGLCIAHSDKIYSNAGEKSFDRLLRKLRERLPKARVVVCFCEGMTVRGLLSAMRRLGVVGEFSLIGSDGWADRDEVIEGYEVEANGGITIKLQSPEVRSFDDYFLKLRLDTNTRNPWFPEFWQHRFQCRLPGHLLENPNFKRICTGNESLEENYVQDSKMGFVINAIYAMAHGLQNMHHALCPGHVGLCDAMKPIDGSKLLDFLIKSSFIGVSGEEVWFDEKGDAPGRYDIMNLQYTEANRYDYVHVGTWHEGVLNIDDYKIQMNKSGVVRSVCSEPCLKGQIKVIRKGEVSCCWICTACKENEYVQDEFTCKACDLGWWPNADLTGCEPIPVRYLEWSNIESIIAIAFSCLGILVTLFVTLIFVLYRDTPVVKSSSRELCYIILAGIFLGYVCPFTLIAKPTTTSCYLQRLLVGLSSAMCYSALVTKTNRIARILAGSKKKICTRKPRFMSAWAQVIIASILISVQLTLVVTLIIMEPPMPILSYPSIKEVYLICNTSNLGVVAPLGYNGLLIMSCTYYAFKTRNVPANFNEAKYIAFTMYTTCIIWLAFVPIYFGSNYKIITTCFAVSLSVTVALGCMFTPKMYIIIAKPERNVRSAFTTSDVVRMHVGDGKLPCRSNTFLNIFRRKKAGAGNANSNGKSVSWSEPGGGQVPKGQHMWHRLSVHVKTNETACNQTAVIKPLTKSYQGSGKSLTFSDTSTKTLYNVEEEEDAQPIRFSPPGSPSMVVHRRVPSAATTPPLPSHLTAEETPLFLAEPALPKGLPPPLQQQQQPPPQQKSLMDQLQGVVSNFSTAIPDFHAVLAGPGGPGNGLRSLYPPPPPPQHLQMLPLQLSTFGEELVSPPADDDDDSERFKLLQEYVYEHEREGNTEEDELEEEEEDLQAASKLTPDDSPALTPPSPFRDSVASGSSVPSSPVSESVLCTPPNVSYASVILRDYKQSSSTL
Sequence of 5-hydroxytryptamine receptor 1E (P28566 whole entry): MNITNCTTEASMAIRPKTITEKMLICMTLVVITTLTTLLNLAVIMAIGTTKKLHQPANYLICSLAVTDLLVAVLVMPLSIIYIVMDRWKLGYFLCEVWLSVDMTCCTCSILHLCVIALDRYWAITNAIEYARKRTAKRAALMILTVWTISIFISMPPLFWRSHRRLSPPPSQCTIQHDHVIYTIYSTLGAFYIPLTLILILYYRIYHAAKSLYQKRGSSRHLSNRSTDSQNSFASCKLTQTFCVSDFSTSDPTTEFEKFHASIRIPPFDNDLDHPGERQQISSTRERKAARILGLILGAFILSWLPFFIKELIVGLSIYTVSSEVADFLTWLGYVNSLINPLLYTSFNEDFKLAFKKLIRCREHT
Sequence of 5-hydroxytryptamine receptor 6 (P50406 whole entry): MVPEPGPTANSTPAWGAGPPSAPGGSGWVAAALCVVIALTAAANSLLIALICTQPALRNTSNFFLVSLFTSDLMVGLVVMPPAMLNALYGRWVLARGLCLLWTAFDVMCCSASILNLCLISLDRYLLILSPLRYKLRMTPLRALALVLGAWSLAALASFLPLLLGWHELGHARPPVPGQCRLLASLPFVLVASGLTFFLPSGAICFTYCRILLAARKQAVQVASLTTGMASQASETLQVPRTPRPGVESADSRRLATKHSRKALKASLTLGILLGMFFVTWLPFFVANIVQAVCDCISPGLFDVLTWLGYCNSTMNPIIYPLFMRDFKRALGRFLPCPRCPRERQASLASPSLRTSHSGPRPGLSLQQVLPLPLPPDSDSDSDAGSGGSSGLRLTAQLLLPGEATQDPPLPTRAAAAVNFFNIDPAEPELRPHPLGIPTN
Sequence of Cytochrome P450 2D6 (P10635 whole entry): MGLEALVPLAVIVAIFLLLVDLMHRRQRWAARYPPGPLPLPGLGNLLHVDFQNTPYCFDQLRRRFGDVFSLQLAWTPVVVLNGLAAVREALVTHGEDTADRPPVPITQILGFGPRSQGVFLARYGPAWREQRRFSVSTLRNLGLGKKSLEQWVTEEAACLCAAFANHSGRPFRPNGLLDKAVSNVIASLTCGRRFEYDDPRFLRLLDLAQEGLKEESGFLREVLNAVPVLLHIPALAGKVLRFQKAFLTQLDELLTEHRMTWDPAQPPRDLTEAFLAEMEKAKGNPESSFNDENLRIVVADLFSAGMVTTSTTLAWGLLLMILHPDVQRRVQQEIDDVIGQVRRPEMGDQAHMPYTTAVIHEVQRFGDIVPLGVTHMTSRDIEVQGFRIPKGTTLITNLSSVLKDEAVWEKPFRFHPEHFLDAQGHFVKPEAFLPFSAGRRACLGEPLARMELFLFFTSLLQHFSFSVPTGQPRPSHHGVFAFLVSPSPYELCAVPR
Sequence of Cytochrome P450 2C9 (P11712 whole entry): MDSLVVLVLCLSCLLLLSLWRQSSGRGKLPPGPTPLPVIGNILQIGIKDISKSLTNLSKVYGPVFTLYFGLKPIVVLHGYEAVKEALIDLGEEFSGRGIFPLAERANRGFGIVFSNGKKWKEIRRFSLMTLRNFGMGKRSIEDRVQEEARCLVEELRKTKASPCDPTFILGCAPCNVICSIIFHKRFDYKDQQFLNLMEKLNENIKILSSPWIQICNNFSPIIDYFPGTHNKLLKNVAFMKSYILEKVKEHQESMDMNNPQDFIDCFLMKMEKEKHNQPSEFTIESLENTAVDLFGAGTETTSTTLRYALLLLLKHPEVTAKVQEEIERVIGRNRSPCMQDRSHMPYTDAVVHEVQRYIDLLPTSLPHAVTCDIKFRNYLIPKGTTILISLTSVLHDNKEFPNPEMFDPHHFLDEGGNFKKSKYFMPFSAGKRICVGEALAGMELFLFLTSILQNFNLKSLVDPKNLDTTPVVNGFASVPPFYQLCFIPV
Sequence of 5-hydroxytryptamine receptor 1D (P28221 whole entry): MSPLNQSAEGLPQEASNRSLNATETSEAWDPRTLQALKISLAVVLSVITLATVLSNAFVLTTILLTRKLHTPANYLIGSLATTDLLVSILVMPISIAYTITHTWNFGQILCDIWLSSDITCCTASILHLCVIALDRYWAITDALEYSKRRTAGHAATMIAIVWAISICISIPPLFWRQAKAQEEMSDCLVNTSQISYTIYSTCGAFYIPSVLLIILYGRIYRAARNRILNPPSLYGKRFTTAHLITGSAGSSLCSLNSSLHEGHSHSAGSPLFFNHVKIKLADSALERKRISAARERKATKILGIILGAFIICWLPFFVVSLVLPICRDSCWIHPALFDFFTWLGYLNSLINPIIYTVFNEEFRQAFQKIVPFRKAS
Sequence of Cytochrome P450 3A4 (P08684 whole entry): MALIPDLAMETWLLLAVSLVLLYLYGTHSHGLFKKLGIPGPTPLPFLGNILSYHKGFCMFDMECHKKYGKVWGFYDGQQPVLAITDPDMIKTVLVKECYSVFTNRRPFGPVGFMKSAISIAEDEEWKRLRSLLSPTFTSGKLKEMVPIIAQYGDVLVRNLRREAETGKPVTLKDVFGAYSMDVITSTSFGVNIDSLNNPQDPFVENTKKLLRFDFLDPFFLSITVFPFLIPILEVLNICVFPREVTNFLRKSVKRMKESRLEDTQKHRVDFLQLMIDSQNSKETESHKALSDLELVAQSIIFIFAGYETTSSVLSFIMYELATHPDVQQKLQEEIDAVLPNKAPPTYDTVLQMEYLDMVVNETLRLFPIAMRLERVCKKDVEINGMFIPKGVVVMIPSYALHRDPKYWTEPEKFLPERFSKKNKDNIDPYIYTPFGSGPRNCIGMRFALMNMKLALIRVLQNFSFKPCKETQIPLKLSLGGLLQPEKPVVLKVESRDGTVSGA

With `CC(=O)c1ccc(OCc2ccc(Oc3cc(-c4nn[nH]n4)ccn3)cc2)c(C)c1O` the Cmax [1] was 78 ng/mL, the inhibition [2] was 0.7% and the Ki [3] was greater than 3.02 µM. It also gave an IC50 [4] of 0.0241 µM, an EC50 [5] greater than 12.5 µM and a bioavailability [6] of 32%. The inhibition [7] was 5.3%, the Ki [8] was greater than 5.37 µM and the inhibition [9] was 6.4%. The Cmax [10] was 2160 ng/mL, the half-life [11] was 2 h and the IC50 [12] was greater than 8 µM. For the same molecule, the Activity (Rattus norvegicus [13]) was “Dose-dependent effect”, the ID100 (Rattus norvegicus [13]) was 1 µg/kg and the Ki [14] was greater than 1.79 µM. For the same molecule, the inhibition (Rattus norvegicus [15]) was -6%, the inhibition at 1 h (hERG (KCNH2)) was less than 15% and the inhibition (Rattus norvegicus [16]) was 5.2%. For the same molecule, the inhibition [17] was -4.5%, the INH (Cytochrome P450 2C9) was greater than 40 µM and the Ki [18] was greater than 2.97 µM. The Ratio [19] was 0.65, the Ki [20] was greater than 6.31 µM and the half-life [21] was 1 h. The Activity [22] was less than 20%, the Vd [23] was 2 L/kg and the EC50 [24] was greater than 25 µM. The Ki [25] was greater than 3.58 µM, the Ki [26] was greater than 2.4 µM and the Tmax [27] was 2.5 h. It also gave an INH (Cytochrome P450 2D6) greater than 40 µM, an EC50 [28] greater than 12.5 µM and an INH (Cytochrome P450 3A4) greater than 40 µM. The Activity [29] was less than 40%, the IC50 [30] was greater than 12.5 µM and the half-life [31] was 8 h.
